# According to US20060105969A1, “Anthelmintic compositions” (priority 1999, published 2006):
# Read-outs that look alike come from different tables or passages of the source.
# Test system: L4 Heartworm (D. immitis)
# Assay: In vitro L4 heartworm (D. immitis) larval motility assay
# Assay type: cell-based, Dirofilaria immitis
SMILES,effect in causing mortality or paralysis,"Observation score (larval motility), duplicate observations (1 mcg/ml, 2 h post treatment)","Observation score (larval motility), duplicate observations (1 mcg/ml, 4 h post treatment)","Observation score (larval motility), duplicate observations (1 mcg/ml, 24 h post treatment)","Observation score (larval motility), duplicate observations (1 mcg/ml, 48 h post treatment)","Observation score (larval motility), duplicate observations (1 mcg/ml, 72 h post treatment)","Observation score (larval motility), duplicate observations (10 mcg/ml, 2 h post treatment)","Observation score (larval motility), duplicate observations (10 mcg/ml, 4 h post treatment)","Observation score (larval motility), duplicate observations (10 mcg/ml, 24 h post treatment)","Observation score (larval motility), duplicate observations (10 mcg/ml, 48 h post treatment)","Observation score (larval motility), duplicate observations (10 mcg/ml, 72 h post treatment)","Observation score (larval motility), duplicate observations"
"CO[C@H]1C[C@H](O[C@@H]2/C(C)=C/C[C@@H]3C[C@@H](C[C@]4(CC[C@H](C)[C@@H](C5CCCCC5)O4)O3)OC(=O)[C@@H]3C=C(C)/C(=N/O)[C@H]4OC/C(=C\C=C\[C@@H]2C)[C@]43O)O[C@@H](C)[C@@H]1O [(1), 5-oximino 22,23-dihydro-25-cyclohexylayermectin B1 monosaccharide]",only a modest effect,5/5,5/5,5/5,5/5,5/5,2/2,2/0,3/3,4/4,3/4,–
"N#Cc1nn(-c2c(Cl)cc(C(F)(F)F)cc2Cl)c(N)c1[S+]([O-])C(F)(F)F (stereo not shown) [Fipronil, 5-amino-3-cyano-1-(2,6-dichloro-4-trifluorome-thylphenyl)-4-trifluoromethylsulphinylpyrazole]",no observable effect at all,–,–,–,–,–,–,–,–,–,–,5/5
